Assay results from ChEMBL document CHEMBL5357065, “Neuropharmacological Advances: Harnessing 5-HT2A Receptor Modulators and Psychoplastogens” (ACS Med Chem Lett, 2024).
Active and inactive are the calls of the source. The calls are words filed in the database; no cut-off is given here.

Legend:
Assay type in all cases: functional, cell-based
[1] = target: T1, 5-hydroxytryptamine receptor 2C (Homo sapiens) (UniProt P28335); experiment: Positive allosteric modulation of human 5-HT2C receptor stably expressed in CHO cells assessed as modulation of 5-HT induced intracellular Ca2+ release by measuring maximal efficacy at 1 uM preincubated for 15 mins followed by 5-HT addition and measured by FLIPR analysis relative to control; conditions: filed as positive allosteric modulator
T1 sequence (whole entry): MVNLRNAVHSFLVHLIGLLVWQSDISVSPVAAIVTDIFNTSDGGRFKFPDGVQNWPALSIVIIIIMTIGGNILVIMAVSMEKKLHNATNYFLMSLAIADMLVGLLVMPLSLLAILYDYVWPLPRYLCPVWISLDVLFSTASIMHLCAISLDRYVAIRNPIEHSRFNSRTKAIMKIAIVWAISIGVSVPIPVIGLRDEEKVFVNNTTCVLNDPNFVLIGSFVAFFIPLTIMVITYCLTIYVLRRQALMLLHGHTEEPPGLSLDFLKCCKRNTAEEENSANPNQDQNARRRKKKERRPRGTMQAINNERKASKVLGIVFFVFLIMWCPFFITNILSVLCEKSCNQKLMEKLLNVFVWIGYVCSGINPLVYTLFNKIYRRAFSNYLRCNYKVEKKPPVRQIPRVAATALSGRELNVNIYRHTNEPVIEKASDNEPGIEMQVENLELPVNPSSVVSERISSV

[2] = target: 5-hydroxytryptamine receptor 2B (Homo sapiens) (UniProt P41595); experiment: Modulation of 5-HT2B receptor (unknown origin) assessed as modulation of 5-HT induced intracellular Ca2+ release by measuring maximal efficacy at 1 uM preincubated for 15 mins followed by 5-HT addition and measured by FLIPR analysis relative to control; conditions: filed as modulator
[3] = target: 5-hydroxytryptamine receptor 2A (Homo sapiens) (UniProt P28223); experiment: Positive allosteric modulation of human 5-HT2A receptor stably expressed in CHO cells assessed as modulation of 5-HT induced intracellular Ca2+ release by measuring maximal efficacy at 1 uM preincubated for 15 mins followed by 5-HT addition and measured by FLIPR analysis relative to control; conditions: filed as positive allosteric modulator
Cortical neurone [4] = experiment: Induction of neurite outgrowth in Wistar rat Cortical neurons assessed as increase in neurite length at <=10 pM incubated for 72 hrs by automated imaging based analysis
Cortical neurone [5] = experiment: Induction of neurite outgrowth in Wistar rat Cortical neurons assessed as increase in neurite number at <=10 pM incubated for 72 hrs by automated imaging based analysis
Cortical neurone [6] = experiment: Induction of neurite outgrowth in Wistar rat Cortical neurons assessed as increase in neurite branching at <=10 pM incubated for 72 hrs by automated imaging based analysis

Chain of 5-hydroxytryptamine receptor 2B (Homo sapiens) (P41595 whole entry): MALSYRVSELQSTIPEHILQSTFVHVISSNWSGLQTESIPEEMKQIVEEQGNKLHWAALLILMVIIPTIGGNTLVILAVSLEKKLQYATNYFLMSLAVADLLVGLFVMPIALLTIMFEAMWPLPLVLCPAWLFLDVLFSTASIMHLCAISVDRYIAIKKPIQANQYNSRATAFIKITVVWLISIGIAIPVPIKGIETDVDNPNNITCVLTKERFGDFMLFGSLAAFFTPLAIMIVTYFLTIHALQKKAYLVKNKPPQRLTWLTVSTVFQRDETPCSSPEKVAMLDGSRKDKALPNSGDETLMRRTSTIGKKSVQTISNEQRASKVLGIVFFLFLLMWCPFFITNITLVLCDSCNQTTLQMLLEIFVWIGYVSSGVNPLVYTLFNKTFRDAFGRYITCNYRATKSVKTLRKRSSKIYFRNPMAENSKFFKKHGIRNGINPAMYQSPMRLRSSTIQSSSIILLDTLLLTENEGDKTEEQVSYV
Chain of 5-hydroxytryptamine receptor 2A (Homo sapiens) (P28223 whole entry): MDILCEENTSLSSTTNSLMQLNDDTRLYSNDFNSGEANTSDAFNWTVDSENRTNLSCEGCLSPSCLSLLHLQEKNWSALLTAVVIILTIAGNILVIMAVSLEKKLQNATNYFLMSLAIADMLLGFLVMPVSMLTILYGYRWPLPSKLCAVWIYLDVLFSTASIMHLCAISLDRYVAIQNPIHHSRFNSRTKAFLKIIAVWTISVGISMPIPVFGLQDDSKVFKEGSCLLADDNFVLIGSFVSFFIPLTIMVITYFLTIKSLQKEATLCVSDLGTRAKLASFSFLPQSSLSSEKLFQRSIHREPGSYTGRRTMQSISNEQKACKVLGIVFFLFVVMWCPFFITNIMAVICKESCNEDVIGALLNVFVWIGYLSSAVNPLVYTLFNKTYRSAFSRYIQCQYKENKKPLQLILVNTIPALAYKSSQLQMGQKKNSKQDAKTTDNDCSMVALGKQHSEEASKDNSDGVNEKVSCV

Emax [1] | Emax [2] | Emax [3] | Compound | Activity (Cortical neurone [4]) | Activity (Cortical neurone [5]) | Activity (Cortical neurone [6])
124% | 106% | 97.8% | O=C(CCCc1ccccc1)NC[C@H](O)CO | – | – | –
– | – | – | COc1cccc2[nH]c3c(c12)C[C@H]1CCCN1CC3 | Active | Active | Active
– | – | – | COc1ccn2c(CC(C)N(C)C)ncc2c1 (stereo not drawn) | Active | Active | Active
– | – | – | COc1ccc2c3c([nH]c2c1)CCN1CCC[C@@H]1C3 | Active | Active | Active
– | – | – | CC(Cc1cnc2cc(F)ccn12)N(C)C (stereo not drawn) | inactive | inactive | Active
120% | 115% | 106% | O=C(NC[C@H](O)CO)c1cc(-c2ccccc2)ccn1 | – | – | –
– | – | – | COc1ccc2c3c([nH]c2c1)C[C@H]1CCCN1CC3 | Active | Active | Active
– | 105% | – | O=C(NC[C@H](O)CO)[C@@H]1C[C@H](c2ccccc2)CCN1 | – | – | –
– | – | – | COc1ccc2c3c([nH]c2c1)C[C@@H]1CCCN1CC3 | Active | Active | Active
– | – | – | COc1ccc2c3c([nH]c2c1)CCN1CCC[C@H]1C3 | Active | Active | Active
